Laboratory results taken from patent US20210187014A1 (The Regents of the University of Colorado, a body corporate, priority 2018, published 2021).
Square brackets hold non-standard residues; d marks the D form. Peptide text beside a SMILES is read from it. Orn(N5-OH,N5-Ac) = CC(=O)N(O)CCC[C@H](N)C(=O)O

How the values were obtained:
C. elegans [1] = experiment: C. elegans larval growth assay: heat-killed E. coli plus trace live E. coli, worm volume; format: in vivo; details: for worm growth with dietary supplementation: worms fed heat-killed E. coli plus live entA- or entF- mutant E. coli (Ent-deficient food)
From the text: In one embodiment of the inventive technology, the present inventors created a unique assay to facilitate the identification of microbial metabolites that benefit growth and development of host animals. […] This unique feeding condition was used to search for E. coli mutants that fail to support normal worm growth, potentially due to their inability to provide specific metabolites to benefit host animals.
E. coli Keio collection screen. Preparation of heat-killed (HK) OP50 plates followed the procedure described previously (Qi et al., 2017). Standard overnight culture of E. coli OP50 grown in LB broth was concentrated to 1/10 vol and was then heat-killed in a 75° C. water bath for 90 min. The 150 µl of the HK-OP50 was spread onto one side of NGM plate. For preparation of bacterial mutant assay plates, E. coli Keio (Baba et al., 2006) mutants were grown overnight at 37° C. in LB medium with […] kanamycin. 0.2 uL of the bacterial culture (OD600) were seeded to the other side of HK OP50 plate. About 300 synchronized L1 worms were added to the screen plate, and cultured at 20° C., then scored for worm size at day 3 and day 4. The entire library was used for the primary screen; each bacterial mutant was screened once. For the secondary screen, 200 candidate mutants were screened (3 replicates) to confirm the slow growth phenotype.
Chemical supplementation of culture plates. For chemical supplementation, each chemical was dissolved in water or DMSO to generate a stock. The stock solution was added to HK OP50 and then spotted onto NGM plates. […] For CaEDTA supplementation (Kiang et al., 2014), 50 ul of CaEDTA (50 ug/ul) was spread onto the center of the NGM plates seeded with OP50, then different volume of the FeCl3[175 ug/ul] […] Bacterial growth analyses. Overnight cultures were diluted to a final OD600=0.01 in 200 μL of NGM liquid medium. Bacteria were grown in 96-well plates with shaking in a Synergy2 plate reader (BioTek) at 37° C. for 17 h. The OD600 was recorded at 20 min intervals.
Analysis of larval growth by measuring worm size. Synchronized L1 worms were seeded on the indicated NGM plate and grew to the indicated times. Photos were taken and worms volume in each photo were measured by WormSizer software (Moore et al., 2013).

MEL cells = experiment: Erythroid differentiation of MEL cells (color change of cell pellets); format: cell-based, murine; details: equimolar supplementation
Method: FIG. 27. Ferric Enterobactin supplementation benefits differentiation of erythroid progenitor cells (MEL) to red blood cells. (FIG. 27A) MEL cells were grown with the indicated treatments. Cell pellets are shown. (FIG. 27B) Quantification of MEL color change presented as the average intensity of each cell pellet, normalized to the intensity of the control. Error bars are the standard deviation of three technical replicates.
MEL cells are murine erythroid progenitor cells that are arrested at the proerythroblast stage. In the laboratory, these cells are induced to undergo erythroid differentiation to red blood cells by addition of various chemicals (e.g. 2% DMSO) (Friend, 1971). Erythroid differentiation is an iron-dependent process that results in a color change in the differentiated cells. The present inventors tested if addition of Fe-Ent would positively impact the differentiation of wild-type MEL cells to red blood cells.

[2] = Stability by NGAL fluorescence assay; format: physicochemical; details: same concentration and buffers, room temp, light
From the text: FIG. 25. […] Degradation is indicated by increased absorbance. […] Degradation is indicated by increased relative fluorescence. […] For all tests, dilutions were kept at room temp and exposed to light. Error is standard deviation of the mean.

[3] = system: C. elegans smf-3/DMT1 mutant; experiment: Growth of iron-deficient C. elegans smf-3/DMT1(-) mutant with iron chelator 2,2'-bipyridyl; format: in vivo
Method: FIG. 26. […] All tests were done on a smf-3/DMT1(-) mutant strain in a culture media where an iron chelator (2,2′-bipyridyl) was added to reduce the environmental iron level (FIG. 26A). […] This growth delay was rescued by supplementation with Ent, scored as the percentage of the population at the indicated growth stage. […] The entP,fepA: E. coli mutant cannot synthesize or utilize Enterobactin.
SMF-3/DMT1 is a conserved divalent metal transporter that transports iron into intestinal cells. The smf-3/DMT1 mutant has been established as an iron deficiency model in C. elegans. These mutants have defective iron uptake that results in iron deficiency (Romney et al 2011) and delayed growth under iron-poor growth conditions created by addition of an iron chelator (2,2′-bipyridyl) to the culture media (Raj an et al 2019).
To determine if the Enterobactin supplementation was benefiting the worm directly or benefiting the worm through an E. coli-dependent mechanism, the test was repeated using an E. coli double mutant that cannot synthesize or utilize Ent (entP,fepk).

C. elegans [4] = experiment: Iron level in live worms by calcein-AM staining (and pftn-2::GFP reporter); format: in vivo
Method: The present inventors employed the commonly used fluorescent cell-permeable dye, calcein AM, of which emission is quenched by iron binding, and applied it to live worms as previously described to estimate the overall iron level in the host.
Live imaging of iron in worms was done as previously described (James et al., 2015). Briefly, worms were collected at different culture conditions, then co-cultured in M9 with 0.05 ug/ML calcein-AM (Invitrogen) for 1 h, then washed 3 times in 1 ml M9. Samples were then mounted for fluorescence microscopy.
For calcein-AM staining, the original images taken with GFP channel were used to measure the intensity. The value of staining intensity was determined by subtracting the background intensity from the calcein-AM stained intestine.

C. elegans [5] = experiment: Siderophore toxicity test: worm growth and mitochondrial morphology (mtGFP); format: in vivo; details: for defects in growth or mitochondrial morphology: solid medium, worms fed wild-type E. coli
From the text: FIG. 8. Bacterial enterobactin promotes C. elegans development. […] (8E) The entA- and entF-mutant E. coli strains colonized the host gut as efficiently as the parental wild-type strain. (FIG. 8F) Cartoon diagram of feeding condition, microscope images and bar graph showing that neither pyoverdine nor ferrichrome caused obvious growth defects in worms fed heat-killed food plus wild-type, live E. coli. (FIG. 8G) Fluorescence microscopy of worms containing mtGFP under the same feeding condition as in (FIG. 8F). […] “n” =number of worms scored. Data are represented as mean±SEM. ***P<0.0001.

## O=C(O)c1cccc(O)c1O [2,3-DHBA, 2,3-dihydroxybenzoic acid]
C. elegans [1]
  worm growth with dietary supplementation: rescued worm growth on entA- but not entF-E. coli

## O=C(N[C@H]1COC(=O)[C@@H](NC(=O)c2cccc([O-])c2[O-])COC(=O)[C@@H](NC(=O)c2cccc([O-])c2[O-])COC1=O)c1cccc([O-])c1[O-].[Fe+3] [Fe-Ent, ferric enterobactin]
MEL cells
  MEL differentiation to red blood cells: increase in MEL differentiation, and this increase was better than supplementation with equimolar FeCl3 alone
[2]
  stability of Ent versus Fe-Ent: more stable than Ent alone
[3]; E. coli double mutant that cannot synthesize or utilize Ent
  growth of smf-3(-) mutants: independent of E. coli
[3]; iron chelator 2,2'-bipyridyl in media
  growth of smf-3(-) mutants: faster and to a greater extent than observed for Enterobactin or FeCl3 supplementation alone

## [Cl][Fe]([Cl])[Cl] [FeCl3, ferric chloride, reference compound]
C. elegans [4]; animals fed Ent-deficient food
  cellular iron level: nor raised cellular iron level
C. elegans [4]; iron-deficient condition, worms treated with CaEDTA
  iron level and growth rate defects: both defects were suppressed
C. elegans [1]; ferric chloride added to live wild-type E. coli, with heat-killed E. coli
  worm growth: worm growth defect
C. elegans [1]
  worm growth with dietary supplementation: neither suppressed the growth defect

## CC(=O)N([O-])CCC[C@@H]1NC(=O)CNC(=O)CNC(=O)CNC(=O)[C@H](CCCN([O-])C(C)=O)NC(=O)[C@H](CCCN([O-])C(C)=O)NC1=O.[Fe+3] [ferrichrome] (cyclo(GGG[Orn(N5-OH,N5-Ac)][Orn(N5-OH,N5-Ac)][Orn(N5-OH,N5-Ac)]))
C. elegans [1]
  worm growth with dietary supplementation: failed to generate a similar impact on worm growth
C. elegans [5]
  defects in growth or mitochondrial morphology: no obvious defects

## hemin
C. elegans [1]
  worm growth with dietary supplementation: did not impact animal growth

## pyoverdine
C. elegans [1]
  worm growth with dietary supplementation: failed to generate a similar impact on worm growth
C. elegans [5]; liquid culture
  mitochondrial morphology (mtGFP): toxic to worms as it damages host mitochondria
C. elegans [5]
  defects in growth or mitochondrial morphology: no obvious defects
